In patent EP0561850B1, “7-SUBSTITUTED-6-FLUORO-1,4-DIHYDRO-4-OXO-QUINOLINE-3-CARBOXYLIC ACID COMPOUNDS USEFUL AS ANTIBACTERIAL AGENTS” (priority 1990, dated 1992):
Converted amounts (≈) assume the structure as drawn. Structures can show the parent of a compound that is named as a salt. Where two headings read alike, the source gives them in different places.

Columns and labels:
[1] = tested on: Methicillin Resistant S. aureus (MRSAs); test: In vitro antimicrobial activity against methicillin resistant S. aureus; type: cell-based; settings: Staphylococcus aureus; MRSA (6 C.I.), C.I. = Clinical Isolates
Experimental: (§1) For aerobic microorganisms, a cation supplemented Mueller Hinton Broth (BBL) was used whereas the Anaerobe Broth MIC (Difco) was used for anaerobic microorganisms. An agar Dilution method was employed for certain aerobic microorganisms using Mueller Hinton II Agar (BBL) and a Cathra multipoint inoculating device which delivered 10^4 cfu/spot of the inoculum on the agar surface. MICs were read after 16-18 hours and 48 hours of incubation in case of microbes growing aerobically and anaerobically respectively.

[2] = tested on: Streptococcus intermedius AN-19; test: In vitro antimicrobial activity against anaerobes, broth microdilution; type: cell-based
Source text: as §1, with “The compounds of the invention display antibacterial activity when tested by the broth microdilution method as described in the NCCLS publications M7-A, M11-A and M17-P of the year 1985. For” for “For”
(§2) By use of the above method, the following minimum inhibitory concentration values (MICs in µg/ml) were obtained: Table 1, against microbes growing aerobically; Table 2, against microbes growing anaerobically; Table 3, against methicillin resistant Staphylococcus aureus and quinoline resistant-methicillin resistant Staphylococcus aureus.

Bacteroides fagilis AN-2 = test: as above; type: cell-based
Source text: as §1, with “The compounds of the invention display antibacterial activity when tested by the broth microdilution method as described in the NCCLS publications M7-A, M11-A and M17-P of the year 1985. For” for “For”
as §2

[3] = tested on: Peptostreptococcus asaccharolyticus AN-16; test: as above; type: cell-based; settings: Peptoniphilus asaccharolyticus
Source text: as §1, with “The compounds of the invention display antibacterial activity when tested by the broth microdilution method as described in the NCCLS publications M7-A, M11-A and M17-P of the year 1985. For” for “For”
as §2

[4] = tested on: Propionobacterium acne AN-17; test: as above; type: cell-based
Source text: as §1, with “The compounds of the invention display antibacterial activity when tested by the broth microdilution method as described in the NCCLS publications M7-A, M11-A and M17-P of the year 1985. For” for “For”
as §2

[5] = tested on: Fusobacterium mortiferum AN-13; test: as above; type: cell-based
Source text: as §1, with “The compounds of the invention display antibacterial activity when tested by the broth microdilution method as described in the NCCLS publications M7-A, M11-A and M17-P of the year 1985. For” for “For”
as §2

[6] = tested on: Quinoline Resistant MRSAs (QRMRSAs); test: In vitro antimicrobial activity against quinoline resistant MRSA; type: cell-based; settings: Staphylococcus aureus; QRMRSA (8 C.I.), C.I. = Clinical Isolates
Experimental: as §1

[7] = tested on: Staphylococcus aureus S-127; test: In vitro antimicrobial activity against aerobes, broth microdilution (NCCLS 1985); type: cell-based; settings: S127, read after 16-18 hours
Experimental: as §1

Sa 127M = test: Microbroth dilution (MHB) method, NCCLS M7-A2; type: cell-based, Staphylococcus aureus; settings: Staphylococcus aureus, inoculum 5 x 10^5 cfu/ml, 35 °C/18 hr, read-out: MIC
Experimental: (§3) The test organisms were obtained from ATCC and clinical laboratories. The 96-well microtitre plates containing […] of serially diluted test compounds in Mueller Hinton Broth (MHB) (conc. range 64-0.03 µg/ml) were inoculated with […] of bacterial suspension in MHB so that an inoculum size of 5 x 10^5 cfu/ml was achieved.
(§4) EC. (S- 63): Eschericia coli Ecl. (S- 130): Enterobacter cloacae Pa. (S- 67): Pseudomonas aeruginosa Kp. (S- 80): Klebsiella pneumoniae Pr.
(§5) Microbroth Dilution (MHB) method; Inoculum, 5 x 10^5 cfu/ml; Incubation 35 °C/18 hr

[8] = tested on: Pseudomonas aeruginosa S-67; test: Microbroth dilution (MHB) method, NCCLS M7-A2; type: cell-based; settings: Pseudomonas aeruginosa, S67
Experimental: as §3, §4, §5

Eschericia coli S-63 = test: Microbroth dilution (MHB) method, NCCLS M7-A2; type: cell-based; settings: Ec S-63, inoculum 5 x 10^5 cfu/ml, 35 °C/18 hr, read-out: MIC
Experimental: as §3, §4, §5

[9] = tested on: Klebsiella pneumoniae S-80; test: Microbroth dilution (MHB) method, NCCLS M7-A2; type: cell-based; settings: Klebsiella pneumoniae, S80
Experimental: as §3, §4, §5

[10] = tested on: Providencia rettgeri S-121; test: Microbroth dilution (MHB) method, NCCLS M7-A2; type: cell-based; settings: Providencia rettgeri, S121, Pr S-121, inoculum 5 x 10^5 cfu/ml, 35 °C/18 hr, read-out: MIC
Experimental: as §3, §4, §5

[11] = AN19, Streptococcus intermedius AN-19, anaerobes, read after 48 hours, read-out: MIC
[12] = AN2, Bacteroides fagilis AN-2, anaerobes, read after 48 hours, read-out: MIC
[13] = AN16, Peptostreptococcus asaccharolyticus AN-16, anaerobes, read after 48 hours, read-out: MIC
[14] = Propionobacterium acne AN-17, anaerobes, read after 48 hours, read-out: MIC
[15] = AN13, Fusobacterium mortiferum AN-13, anaerobes, read after 48 hours, read-out: MIC

| SMILES | MIC [1] [µg/mL] | MIC [2, 11] [µg/mL] | MIC (Bacteroides fagilis AN-2; [12]) [µg/mL] | MIC [3, 13] [µg/mL] | MIC [4, 14] [µg/mL] | MIC [5, 15] [µg/mL] | MIC [6] [µg/mL] | MIC [7] [µg/mL] | also measured |
| --- | --- | --- | --- | --- | --- | --- | --- | --- | --- |
| Nc1c(F)c(N2CCC(n3ccnn3)C2)c(F)c2c1c(=O)c(C(=O)O)cn2C1CC1 (centres unmarked) [Example 11, 5-Amino-1-cyclopropyl-6,8-difluoro-7-[3-(1,2,3-triazol-1-yl)-pyrrolidin-1-yl]-1,4-dihydro-4-oxo-quinoline-3-carboxylic acid] | 0.004 to 0.008 (≈ 0.00961 to 0.0192 µM) | 0.06 (≈ 0.144 µM) | 1 (≈ 2.4 µM) | 0.06 (≈ 0.144 µM) | ≤ 0.03 | 0.06 (≈ 0.144 µM) | 0.5 to 2 (≈ 1.2 to 4.8 µM) |  |  |
| Nc1c(F)c(N2CC[C@H](n3ccnn3)C2)c(F)c2c1c(=O)c(C(=O)O)cn2C1CC1 [Example 12, 5-Amino-1-cyclopropyl-6,8-difluoro-7-[3S-(1,2,3-triazol-1-yl)-pyrrolidin-1-yl]-1,4-dihydro-4-oxo-quinoline-3-carboxylic acid] | 0.004 to 0.008 (≈ 0.00961 to 0.0192 µM) | 0.12 (≈ 0.288 µM) | 1 (≈ 2.4 µM) | 0.06 (≈ 0.144 µM) | 0.06 (≈ 0.144 µM) | 0.06 (≈ 0.144 µM) | 0.5 to 2 (≈ 1.2 to 4.8 µM) | 0.008 (≈ 0.0192 µM) |  |
| NC1CCN(c2nc3c(cc2F)c(=O)c(C(=O)O)cn3-c2ccc(F)cc2F)C1 (centres unmarked) [Tosufloxacin, reference compound] | 0.015 to 0.03 (≈ 0.0371 to 0.0742 µM) |  |  |  |  |  | 2 to 16 (≈ 4.95 to 39.6 µM) |  |  |
| Nc1c(F)c(N2CC[C@H](n3ccnn3)C2)c(F)c2c1c(=O)c(C(=O)O)cn2-c1ccc(F)cc1F [Example 15] | 0.008 to 0.015 (≈ 0.0164 to 0.0307 µM) |  |  |  |  |  | 1 to 16 (≈ 2.05 to 32.8 µM) | 0.015 (≈ 0.0307 µM) |  |
| Nc1c(F)c(N2CCC(n3ccnn3)C2)c(F)c2c1c(=O)c(C(=O)O)cn2-c1ccc(F)cc1F (centres unmarked) [Example 14, 5-Amino-1-(2,4-difluorophenyl)-6,8-difluoro-7-[3-(1,2,3-triazol-1-yl)pyrrolidin-1-yl]-1,4-dihydro-4-oxo-quinoline-3 carboxylic acid] | 0.008 to 0.03 (≈ 0.0164 to 0.0614 µM) | 0.06 (≈ 0.123 µM) | > 64 | 0.12 (≈ 0.246 µM) | 0.06 (≈ 0.123 µM) | 2 (≈ 4.09 µM) | 1 to 8 (≈ 2.05 to 16.4 µM) | ≤ 0.015 |  |
| O=C(O)c1cn(C2CC2)c2cc(N3CCNCC3)c(F)cc2c1=O [Ciprofloxacin, reference compound] |  |  |  |  |  |  |  |  | MIC (Sa 127M): 8 µg/mL (≈ 24.1 µM); MIC [8]: 0.25 µg/mL (≈ 0.754 µM); MIC (Eschericia coli S-63): ≤ 8 ng/mL; MIC [9]: 0.015 µg/mL (≈ 0.0453 µM); MIC [10]: 0.015 µg/mL (≈ 0.0453 µM); MIC ([2]; Streptococcus intermedius, AN19, 48 h): 1 µg/mL (≈ 3.02 µM); MIC (Bacteroides fagilis AN-2; Bacteroides, AN2, 48 h): 16 µg/mL (≈ 48.3 µM); MIC ([3]; AN16, 48 h): 4 µg/mL (≈ 12.1 µM); MIC ([4]; 48 h): 0.5 µg/mL (≈ 1.51 µM); MIC ([5]; Fusobacterium mortiferum, AN13, 48 h): 16 µg/mL (≈ 48.3 µM) |
| NC1CN(c2nc3c(cc2F)c(=O)c(C(=O)O)cn3C2CC2)CC1n1ccnn1 (stereo not drawn) [Example 7, 7-[cis-3-Amino-4-(1,2,3-triazol-1-yl)pyrrolidin-1-yl]-1-cyclopropyl-6-fluoro-1,4-dihdyro-4-oxo-1,8-naphthyridine-3-carboxylic acid hydrochloride] |  |  |  |  |  |  |  | 0.008 |  |
| C[C@@H]1CN(c2c(F)c(N)c3c(=O)c(C(=O)O)cn(C4CC4)c3c2F)C[C@H](C)N1 [Sparfloxacin, reference compound] | 0.03 to 0.12 (≈ 0.0765 to 0.306 µM) | 0.5 (≈ 1.27 µM) | 2 (≈ 5.1 µM) | 4 (≈ 10.2 µM) | 1 (≈ 2.55 µM) | 0.5 (≈ 1.27 µM) | 4 to 16 (≈ 10.2 to 40.8 µM) | 0.06 (≈ 0.153 µM) |  |
